Source: PubChem BioAssay (NCI)
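Assay format: 96-well plates, 48-hour exposure. GI50 marks 50% less growth. TGI: concentration producing complete growth inhibition.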

How the values were obtained:
Experiment in all cases: growth of human tumour cells (NCI), 48 h
BT-549 breast = test system: BT-549 breast
DU-145 prostate = test system: DU-145 prostate
HCT-116 colon = test system: HCT-116 colon
HOP-92 NSCLC = test system: HOP-92 NSCLC
HS 578T breast = test system: HS 578T breast
M14 melanoma = test system: M14 melanoma
MDA-MB-435 = test system: MDA-MB-435
MOLT-4 leukemia = test system: MOLT-4 leukemia
NCI-H460 lung = test system: NCI-H460 lung
NCI/ADR-RES ovarian = test system: NCI/ADR-RES ovarian
OVCAR-3 ovarian = test system: OVCAR-3 ovarian
SN12C renal = test system: SN12C renal
SNB-19 CNS = test system: SNB-19 CNS
SR leukemia = test system: SR leukemia
U251 CNS = test system: U251 CNS
UO-31 renal = test system: UO-31 renal
SNB-75 CNS = test system: SNB-75 CNS
SW-620 colon = test system: SW-620 colon

| Structure (SMILES) | TGI (BT-549 breast) | TGI (DU-145 prostate) | TGI (HCT-116 colon) | TGI (HOP-92 NSCLC) | TGI (HS 578T breast) | TGI (M14 melanoma) | TGI (MDA-MB-435) | TGI (MOLT-4 leukemia) | TGI (NCI-H460 lung) | TGI (NCI/ADR-RES ovarian) | TGI (OVCAR-3 ovarian) | TGI (SN12C renal) | TGI (SNB-19 CNS) | TGI (SR leukemia) | TGI (U251 CNS) | TGI (UO-31 renal) | TGI (SNB-75 CNS) | TGI (SW-620 colon) | GI50 (HOP-92 NSCLC) |
| --- | --- | --- | --- | --- | --- | --- | --- | --- | --- | --- | --- | --- | --- | --- | --- | --- | --- | --- | --- |
| O=C(CCc1ccc(O)cc1)NCCc1ccc(O)cc1 | > 100 µM | > 100 µM | > 100 µM | > 100 µM | > 100 µM | > 100 µM | > 100 µM | > 100 µM | > 100 µM | > 100 µM | > 100 µM | > 100 µM | > 100 µM | > 100 µM | > 100 µM | > 100 µM |  |  |  |
| O=C(CC(=O)N(C(=O)c1ccccc1)c1ccc(Cl)cc1)N/N=C\c1cc(N=Nc2ccccc2Cl)ccc1O | > 100 µM | > 100 µM | > 100 µM | 59.6 µM | 61.6 µM | > 100 µM | > 100 µM | 37.8 µM | > 100 µM |  | > 100 µM | > 100 µM | 94.2 µM | 35.8 µM | > 100 µM | > 100 µM | 36.6 µM | > 100 µM |  |
| O=C1C(Br)=CC2(C=C1Br)CCN=c1c(O)c3c(c(O)c12)=NC=N3 | 33.3 µM | 29.6 µM | 30.3 µM | 24.8 µM | 71.5 µM | 30.6 µM | 23.4 µM | > 100 µM | 32.8 µM | 52.9 µM | 29.1 µM |  |  | > 100 µM | 28.4 µM | 29.4 µM | 30.5 µM | 31.9 µM |  |
| CCOC(=O)/C(O)=C(/C=NC(=S)c1ccncc1)C(=O)OCC | > 100 µM | > 100 µM | > 100 µM | > 100 µM | > 100 µM | > 100 µM | > 100 µM | > 100 µM | > 100 µM | > 100 µM | > 28.8 µM | > 100 µM | 97 µM | > 100 µM | > 100 µM | > 100 µM | > 100 µM | > 100 µM | > 100 µM |
| CCOC(=O)C(=C(SC)SC)c1nn2c(=O)cc(C)nc2s1 | 43.7 µM | 30.1 µM | 30.5 µM | 34.4 µM | > 100 µM | 29.4 µM | 30.7 µM | 44.1 µM | 60.7 µM | 90.4 µM | 35 µM | > 100 µM | 86 µM | 61.3 µM | 58.1 µM | 34 µM | 89.6 µM | 41.3 µM |  |
| S=C(/N=c1/sc(Nc2ccccc2)nc2sc3c(c12)CCCC3)Nc1ccccc1 | > 62.5 µM | > 62.5 µM | > 62.5 µM | > 62.5 µM | > 62.5 µM |  | > 62.5 µM | > 62.5 µM | > 62.5 µM |  | > 62.5 µM | > 62.5 µM | > 62.5 µM | > 62.5 µM | > 62.5 µM | > 62.5 µM |  | > 62.5 µM |  |
| Nc1nc(Cl)cc(NCC2(CO)CC(OCc3ccccc3)C2)n1 (stereo not drawn) | > 100 µM | > 100 µM | > 100 µM | > 100 µM | > 100 µM |  | > 100 µM |  | > 100 µM | > 100 µM | > 100 µM | > 100 µM | > 100 µM | > 100 µM | > 100 µM | > 100 µM | 85.2 µM | > 100 µM |  |
| Cc1cccc2c(N)c3cccc(C(=O)NCCCNCCN)c3nc12 | 28 µM | 17.2 µM | 25.9 µM | 42.7 µM | 3.71 µM | 28.4 µM | 29.1 µM | 17.4 µM | 11.6 µM | 77.9 µM | 63.2 µM | 2.25 µM | 15 µM | > 82.9 µM | 9.31 µM | 46.8 µM | 8.1 µM | 33.3 µM |  |
| c1ccc2c(c1)nc1n2CNCC1 | > 100 µM | > 100 µM | > 100 µM | > 100 µM | > 100 µM | > 100 µM | > 100 µM | > 100 µM | > 100 µM | > 100 µM | > 100 µM | > 100 µM | > 100 µM | > 100 µM | > 100 µM | > 100 µM | > 100 µM | > 100 µM |  |
| O=P(O)(O)CN1CCN(CP(=O)(O)O)CCN(CP(=O)(O)O)CCN(CP(=O)(O)O)CC1 | > 100 µM | > 100 µM | > 100 µM | > 100 µM | > 100 µM | > 100 µM | > 100 µM | > 100 µM | > 100 µM | > 100 µM | > 100 µM | > 100 µM | > 100 µM | 95.9 µM | > 100 µM | > 100 µM | > 100 µM | > 100 µM |  |
| CC(=O)O[C@@H]1C=C(C)[C@H](CBr)O[C@@]2(C)CC[C@H](Br)C(C)(C)[C@H]12 | > 100 µM | > 100 µM | > 100 µM | > 100 µM | > 100 µM | > 100 µM | > 100 µM | > 100 µM | > 100 µM | > 100 µM |  | > 100 µM | > 100 µM | > 100 µM | > 100 µM | > 100 µM | > 100 µM | > 100 µM |  |
| Cc1ccccc1Nc1cn(COCc2ccccc2)c(=O)[nH]c1=O | 66.2 µM | > 100 µM | > 100 µM | > 100 µM | > 100 µM | > 100 µM | > 100 µM | > 100 µM | > 100 µM | > 100 µM | > 100 µM | > 100 µM | > 100 µM |  | > 100 µM | > 100 µM |  | > 100 µM |  |
| CCCN=C(NC(=O)c1ccc(Cl)cc1)SC | 89.8 µM | > 100 µM | > 100 µM |  | 95 µM | > 100 µM | > 100 µM | > 100 µM | > 100 µM | > 100 µM | > 100 µM | > 100 µM | > 100 µM | > 100 µM | > 100 µM | 46.4 µM | 97.2 µM | > 100 µM |  |
| CCCCn1c(C)c(C(=O)OCC)c2cc(OCc3ccc(C(=O)Nn4c(C)ccc4C)cc3)c(Br)cc21 | > 100 µM | > 100 µM | > 100 µM | > 100 µM | > 100 µM | > 100 µM | > 100 µM | > 100 µM | > 100 µM | > 100 µM | > 100 µM | > 100 µM | > 100 µM | > 100 µM | > 100 µM |  | > 100 µM | > 100 µM |  |
